What was measured:
Assay in all cases: relative viability (nuclei count vs DMSO), 5 days (fraction); higher = more cells survive
[1] = compound: C[C@@]1(C(=O)Nc2ccc(F)nc2)CCCN1c1nc(Nc2cc(C3CC3)n[nH]2)c2cccn2n1 + N=C(N)NC(=N)NCCc1ccccc1 [Phenformin] (partner 250 µM)
Summary of the method: (§1)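 Lung cancer cell lines were seeded in 1536-well plates and dosed by pin tool the next day, with either a single drug or a fixed anchor-drug dose combined with five library-drug doses (not always all listed) spaced in √10 steps. Five days later, one step fixed the cells and stained their nuclei (final 0.05% Triton X-100, 1% formaldehyde, 1 ug/ml Hoechst), and nuclei were counted on 4× images. Relative viability is the nuclei count in treated wells divided by the count in vehicle wells, and each value is the median of duplicate plates.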

[2] = compound: C[C@@]1(C(=O)Nc2ccc(F)nc2)CCCN1c1nc(Nc2cc(C3CC3)n[nH]2)c2cccn2n1
Summary of the method: (§2)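 Vehicle-anchored 1536-well plates of lung cancer cell lines, held overnight at 37 °C, were pinned with five library-drug doses (not always all listed) spaced by √10. No medium change followed over the next 5 days, after which the cells were fixed, permeabilised and Hoechst-stained together and imaged at 4×. Nuclei were counted with MetaXpress, and viability is treated-well nuclei over vehicle-well nuclei, taken as a median across plates. Plates passed with control CV below 25% and at least one doubling.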

Motesanib = compound: CC1(C)CNc2cc(NC(=O)c3cccnc3NCc3ccncc3)ccc21 [Motesanib]
Summary of the method: as §2

Motesanib + Navitoclax = compound: CC1(C)CNc2cc(NC(=O)c3cccnc3NCc3ccncc3)ccc21 [Motesanib] + CC1(C)CCC(c2ccc(Cl)cc2)=C(CN2CCN(c3ccc(C(=O)NS(=O)(=O)c4ccc(N[C@H](CCN5CCOCC5)CSc5ccccc5)c(S(=O)(=O)C(F)(F)F)c4)cc3)CC2)C1 [Navitoclax] (partner 0.5 µM)
Summary of the method: as §1

Cell Line	relative viability ([1]; first compound 0.04 µM)	relative viability ([1]; first compound 0.1265 µM)	relative viability ([1]; first compound 0.4 µM)	relative viability ([1]; first compound 1.265 µM)	relative viability ([2]; 0.04 µM)	relative viability ([2]; 0.1265 µM)	relative viability ([2]; 0.4 µM)	relative viability ([2]; 1.265 µM)	relative viability (Motesanib; 0.01 µM)	relative viability (Motesanib; 0.03162 µM)	relative viability (Motesanib; 0.1 µM)	relative viability (Motesanib; 0.3162 µM)	relative viability (Motesanib; 1 µM)	relative viability (Motesanib + Navitoclax; first compound 0.01 µM)	relative viability (Motesanib + Navitoclax; first compound 0.03162 µM)	relative viability (Motesanib + Navitoclax; first compound 0.1 µM)	relative viability (Motesanib + Navitoclax; first compound 0.3162 µM)	relative viability (Motesanib + Navitoclax; first compound 1 µM)
NCI-H2342	0.574	0.43	0.46	0.44	1.16	0.863	0.805	0.7	0.902	0.976	1.05	0.928	1.06	–	–	–	–	–
HCC-15	0.387	0.209	0.27	0.259	0.85	0.667	0.727	0.764	0.955	0.972	0.896	1.16	1.01	0.69	0.718	0.713	0.773	0.748
A-427	0.341	0.265	0.229	0.211	1.09	0.944	0.889	0.797	0.944	1.01	0.894	1.03	1.06	1.01	0.989	1.06	1.02	1.02
NCI-H2228	0.223	0.196	0.171	0.232	0.857	0.781	0.743	0.652	1.1	1.03	0.971	1.11	1.06	1.13	0.913	0.632	1.04	1.12
NCI-H1734	0.323	0.272	0.278	0.281	0.855	0.721	0.651	0.615	0.968	1.01	0.948	1.07	1.01	0.861	0.915	0.796	0.959	0.938
PC-14	0.708	–	0.517	0.523	1.04	0.769	0.875	0.946	0.977	0.995	0.974	1.07	1.05	1.03	1.06	1	1.06	1.05
NCI-H1915	0.372	0.381	0.378	0.347	1	1.06	0.982	0.982	0.978	0.988	0.908	1.05	1.04	0.782	0.747	0.824	0.794	0.784
NCI-H1666	0.554	0.529	0.635	0.487	0.932	0.83	0.773	0.753	1.04	0.965	0.976	0.99	1.08	0.947	0.979	0.99	1.05	0.88
HCC-366	0.66	0.54	0.596	0.186	1	0.98	1.03	0.753	1.04	1.01	0.991	1.04	1.07	0.917	0.975	0.972	0.998	1.19
SK-MES-1	0.699	0.632	0.559	0.635	1.03	0.955	0.796	0.921	1.01	1.02	1.06	1.01	1.02	1.13	1.15	1.23	1.24	1.21
SW 1573	0.232	0.218	0.228	0.214	0.824	0.762	0.697	0.672	0.998	0.894	0.977	1.05	1.15	0.902	0.994	0.824	1.1	1.06
NCI-H661	0.245	0.235	0.233	0.229	1.04	1.04	1.01	0.875	0.972	1.02	0.985	1.04	0.964	–	–	–	–	–
PC-3 [JPC-3]	0.504	0.467	0.456	0.476	1.04	0.937	1.02	1.02	1.05	1.03	1.05	1.03	1.05	0.83	0.883	0.802	0.779	0.827
NCI-H1623	0.563	0.462	0.449	0.477	0.809	0.79	0.678	0.622	1.06	1.08	0.901	0.964	0.926	–	–	–	–	–
Calu-6	–	–	–	–	1.11	0.948	0.884	0.844	1	0.98	1	1.05	0.987	0.877	0.748	0.852	0.758	0.76
LC-2-ad	0.484	0.388	0.369	0.257	0.89	0.845	0.752	0.625	0.992	0.974	1.01	1.07	0.981	0.405	0.381	0.522	0.402	0.4
